Results: patent US8637045B2, “Therapy for lysosomal enzyme deficiencies” (University of Massachusetts, priority 2004, dated 2014)

Experiments:
β-glucosidase = target: T1, β-glucosidase (Mus musculus, UniProt P17439); test: Gaucher mouse model produced with conduritol beta-epoxide; type: in vivo, mice
T1 construct: from tissue; host or cells: tissues of C57/Bl mice dosed in vivo with CBE
T1 sequence (P17439 20-515): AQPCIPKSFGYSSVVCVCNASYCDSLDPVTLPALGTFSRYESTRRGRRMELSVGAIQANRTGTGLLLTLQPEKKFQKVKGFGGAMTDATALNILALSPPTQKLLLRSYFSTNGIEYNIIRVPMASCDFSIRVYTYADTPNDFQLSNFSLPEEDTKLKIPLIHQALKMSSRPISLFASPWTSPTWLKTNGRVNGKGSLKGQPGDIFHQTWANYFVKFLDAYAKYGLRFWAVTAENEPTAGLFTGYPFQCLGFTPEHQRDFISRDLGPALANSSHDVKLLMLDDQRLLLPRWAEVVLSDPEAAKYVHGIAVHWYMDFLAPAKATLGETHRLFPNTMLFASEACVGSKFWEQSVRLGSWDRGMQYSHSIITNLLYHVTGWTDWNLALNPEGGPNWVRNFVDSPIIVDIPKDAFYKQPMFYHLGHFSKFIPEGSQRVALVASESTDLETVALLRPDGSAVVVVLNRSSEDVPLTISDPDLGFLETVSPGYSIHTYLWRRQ
Procedure: Two mouse models of Gaucher disease were used. The first Gaucher mouse was produced by injecting C57/Bl mice with 100 mg/kg of conduritol beta-epoxide, (CBE, 7-oxabicyclo[4.1.0]heptane-2,3,4,5-tetrol), intraperitoneally daily for 3 weeks. Three weeks of treatment of 3 month old C57/Bl mice with CBE produced an approximately 50% and 500% increase in the amount of glucosylceramide in systemic tissues and brain, respectively. […] No weight or behavioral differences occurred in 3 month old treated mice. […] Expressed as percentages of total body weight there was no difference for brain, liver, and kidney, but the spleen weight was 60% of control. […] There was a 50% and 300% increase in glucocerebroside in liver tissue and brain, respectively.

S. aureus = S. aureus killing by J774 murine macrophages loaded with YGP particles; type: cell-based
Procedure: One ml of murine macrophages, J774 (5×10^5/ml) was combined with YGP, YGP:alginate—tet or tetracycline of various concentration as summarized in Table 6, above.
The J774 cells were cultured overnight in medium (DMEM containing 10% fetal calf serum without antibiotics or glutamine). […] The microbial killing assay was set up in 96 well plates. The cultures were diluted in medium and incubated overnight to allow for metabolism and release of tet from phagocytosed YGP:alginate—tet particles. Bacterial challenge was added as indicated in Table 7 and the cultures were incubated 2 hours at 37 degrees Celsius in a CO2 incubator to permit S. aureus phagocytosis and killing by the J774 murine macrophages. After this incubation, 200 μl LB Broth (Luria-Bertani Broth: 1.0% tryptone, 0.5% yeast extract, 1.0% NaCl) was added to each culture to lyze the macrophages. Cultures were incubated at 37 degrees Celsius in an incubator to permit outgrowth of surviving S. aureus. Growth was monitored by change in pH as indicated by phenol red. The effects of YGP, YGP:alginate—tet or tetracycline were compared.

[1] = 3 month old C57/Bl mice, 100 mg/kg intraperitoneally daily for 3 weeks
[2] = 1 day old infant C57/Bl mice, 100 mg/kg IP daily for 3 weeks

OC1C(O)C(O)C2OC2C1O (stereo not shown) [CBE, 7-oxabicyclo[4.1.0]heptane-2,3,4,5-tetrol]
increase in the amount of glucosylceramide in brain (β-glucosidase; [1]): ~500% | increase in the amount of glucosylceramide in systemic tissues (β-glucosidase; [1]): approximately 50% | increase in glucocerebroside in brain (β-glucosidase; [2]): 300% | increase in glucocerebroside in liver tissue (β-glucosidase; [2]): 50% | spleen weight (as percentage of total body weight) (β-glucosidase; [2]): 60 % of control | β-glucosidase activity (β-glucosidase; C57/Bl mice, 100 mg/kg intraperitoneally daily for 3 weeks): drastic reduction

CN(C)[C@@H]1C(O)=C(C(N)=O)C(=O)[C@@]2(O)C(O)=C3C(=O)c4c(O)cccc4[C@@](C)(O)[C@H]3C[C@@H]12 [tet, tetracycline]
S. aureus Killed (S. aureus; with J774, 1.25 μg/ml): 1 × 10^6 | Fold Increased Killing (S. aureus; with J774, 2.5 μg/ml): 3.3 | S. aureus Killed (S. aureus; with J774, 2.5 μg/ml): 1 × 10^7 | S. aureus Killed (S. aureus; with J774, 5 μg/ml): >1 × 10^8 | S. aureus Killed (S. aureus; with J774, 10 μg/ml): >1 × 10^8 | Fold Increased Killing (S. aureus; without J774, 1.25 μg/ml): 1 | S. aureus Killed (S. aureus; without J774, 1.25 μg/ml): 1 × 10^6 | S. aureus Killed (S. aureus; without J774, 2.5 μg/ml): 3.3 × 10^6 | S. aureus Killed (S. aureus; without J774, 5 μg/ml): >1 × 10^8 | S. aureus Killed (S. aureus; without J774, 10 μg/ml): >1 × 10^8
